≈ marks a conversion by molar mass, not a printed value. Where only a bound is given, the exact number is not on record here.

These results are taken from ChEMBL document CHEMBL1156188, “Synthesis and SAR of novel 4-morpholinopyrrolopyrimidine derivatives as potent phosphatidylinositol 3-kinase inhibitors” (J Med Chem, 2010).

Data set [1] concerns PC-3. The data set can be described thus: Cytotoxicity against human PC3 cells with PTEN mutant after 72 hrs. The format is functional, cell-based. The conditions noted are these: PC-3, 72 h.
Data set [2] in a line: Solubility at pH 7.4. The class given is physicochemical. Conditions: buffer.
For data set [3], the target named is Serine/threonine-protein kinase mTOR (Homo sapiens, UniProt P42345). The data set can be described thus: Inhibition of mTOR by DELFIA.
Data set [4] is described as follows: in vitro. Conditions: rat, liver microsomes.
Description: Half life in rat liver microsomes
In data set [5] the test system is MDA-MB-361. The data set can be described thus: cells. The conditions noted are these: Homo sapiens, MDA-MB-361, 72 h.
Data set [6] in a line: in vitro. Conditions: human, liver microsomes.
Description: Half life in human liver microsomes
Data set [7] has as its target Phosphatidylinositol 4,5-bisphosphate 3-kinase catalytic subunit alpha isoform (Homo sapiens, UniProt P42336).
A short description of data set [8]: Solubility at pH 3. The format is physicochemical. The conditions noted are these: buffer.
Data set [9] in a line: in vitro. Conditions: mouse, liver microsomes.
Description: Half life in mouse liver microsomes
The nature of data set [10]: Drug level in human MDA-MB-361 cells xenografted nude mouse at 25 mg/kg, iv after 8 hrs. The class given is ADME, organism-based. The arrangement: dose 25 mg/kg, route intravenous. The conditions noted are these: blood, read-out: Drug uptake.

Phosphatidylinositol 4,5-bisphosphate 3-kinase catalytic subunit alpha isoform, sequence (P42336 whole entry, canonical isoform): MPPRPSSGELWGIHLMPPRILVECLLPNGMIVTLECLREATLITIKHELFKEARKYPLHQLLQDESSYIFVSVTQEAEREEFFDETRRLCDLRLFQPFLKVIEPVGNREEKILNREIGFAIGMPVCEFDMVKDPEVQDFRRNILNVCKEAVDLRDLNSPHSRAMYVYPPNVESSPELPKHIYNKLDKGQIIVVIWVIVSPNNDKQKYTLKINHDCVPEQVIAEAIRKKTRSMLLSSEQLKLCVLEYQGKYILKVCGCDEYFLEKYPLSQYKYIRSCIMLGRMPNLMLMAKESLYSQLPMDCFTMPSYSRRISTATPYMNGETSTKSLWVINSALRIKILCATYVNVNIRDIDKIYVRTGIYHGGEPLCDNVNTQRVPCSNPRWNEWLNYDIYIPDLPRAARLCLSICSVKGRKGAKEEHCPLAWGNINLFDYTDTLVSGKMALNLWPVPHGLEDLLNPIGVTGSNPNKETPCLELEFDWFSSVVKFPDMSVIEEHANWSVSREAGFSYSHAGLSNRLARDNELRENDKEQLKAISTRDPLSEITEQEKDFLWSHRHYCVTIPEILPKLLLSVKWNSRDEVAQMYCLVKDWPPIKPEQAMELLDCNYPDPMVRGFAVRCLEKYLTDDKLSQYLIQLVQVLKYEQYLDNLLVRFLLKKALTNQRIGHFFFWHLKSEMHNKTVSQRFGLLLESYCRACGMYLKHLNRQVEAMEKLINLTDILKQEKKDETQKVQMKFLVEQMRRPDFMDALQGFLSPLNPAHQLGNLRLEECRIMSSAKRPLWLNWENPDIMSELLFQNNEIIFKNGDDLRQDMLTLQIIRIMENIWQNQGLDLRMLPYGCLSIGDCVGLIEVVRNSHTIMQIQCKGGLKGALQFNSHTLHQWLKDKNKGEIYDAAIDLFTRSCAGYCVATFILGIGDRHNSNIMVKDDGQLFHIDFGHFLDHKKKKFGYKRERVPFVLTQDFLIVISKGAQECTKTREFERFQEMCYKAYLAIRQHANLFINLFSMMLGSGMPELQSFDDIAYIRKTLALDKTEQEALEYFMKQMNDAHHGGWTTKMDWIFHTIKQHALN

In the case of `OCc1cccc(-c2nc(N3CCOCC3)c3cc[nH]c3n2)c1`, 1210 nM corresponded to half-maximal inhibition in data set [1] (IC50). Further, the concentration in solution in [2] (solubility) was 38 µg/mL (≈ 122 µM).

`CN(C)CCn1ccc2c(N3CCOCC3)nc(-c3ccc(NC(=O)Nc4ccc(F)cc4)cc3)nc21`: the IC50 in data set [3] came out at 8 nM; in data set [1], 189 nM.

In data set [1], `CN(C)CCn1ccc2c(N3CCOCC3)nc(-c3ccc(NC(=O)Nc4ccccn4)cc3)nc21` showed an IC50 of 882 nM. In data set [4], this compound returned a half-life of 5 min. Moreover, the concentration in solution in data set [2] (solubility) was 21 µg/mL (≈ 43.2 µM).

Take `O=C(Nc1ccncc1)Nc1ccc(-c2nc(N3CCOCC3)c3ccn(CC(F)(F)F)c3n2)cc1`: the IC50 stood at 53 nM in data set [5] and 82 nM in data set [1]. Also, in data set [4], the half-life is over 30 min. This compound also gave a solubility in data set [2] of 1 µg/mL (≈ 2.01 µM).

As to `CCn1ccc2c(N3CCOCC3)nc(-c3ccc(NC(=O)Nc4ccc(C(=O)N5CCN(C)CC5)cc4)cc3)nc21`, the half-life in [6] is over 30 min; in data set [4], 15 min. Also, the 50% inhibitory concentration (IC50) in data set [5] was 4.5 nM; in data set [3] it was 1.4 nM; in data set [1], 17 nM; in data set [7] it was 2.7 nM.

For `O=C(Nc1ccncc1)Nc1ccc(-c2nc(N3CCOCC3)c3ccn(CCN4CCNCC4)c3n2)cc1`, the IC50 in [1] worked out at 2330 nM. Besides, the half-life in data set [4] came out at 4 min. The solubility in data set [2] was over 100 µg/mL.

The compound `O=C(Nc1ccncc1)Nc1ccc(-c2nc(N3CCOCC3)c3cc[nH]c3n2)cc1` had an IC50 in [1] of 187 nM.

On to `O=C(Nc1ccncc1)Nc1ccc(-c2nc(N3CCOCC3)c3ccn(CCN4CCCCC4)c3n2)cc1`, for which the 50% inhibitory concentration (IC50) in data set [1] amounted to 634 nM. Further, the half-life in [4] was determined as 4 min. The solubility in [2] was 47 µg/mL (≈ 89.2 µM).

`OCc1cccc(-c2nc(N3CCOCC3)c3[nH]cc(CN4CCCC4)c3n2)c1` showed an IC50 in data set [1] of over 3160 nM.

Take `CN1CCN(C(=O)c2ccc(NC(=O)Nc3ccc(-c4nc(N5CCOCC5)c5ccn(CC(F)(F)F)c5n4)cc3)cc2)CC1`: the half-life in data set [6] was over 30 min; in [9], over 30 min; in data set [4], 27 min. The solubility in data set [8] was over 100 µg/mL. The IC50 in [5] turned out to be 6.7 nM; in data set [3], 1.7 nM; in data set [1], 17 nM; in [7] it was 2.4 nM. Further, the concentration at 8 h in data set [10] was determined as 1680 ng/mL.

For the compound `COC(Cn1ccc2c(N3CCOCC3)nc(-c3ccc(NC(=O)Nc4ccncc4)cc3)nc21)OC`, the IC50 in data set [1] came out at 72 nM. The half-life in data set [4] was 4 min. The solubility in data set [2] came to 2 µg/mL (≈ 3.97 µM).

`CN(C)Cc1c[nH]c2c(N3CCOCC3)nc(-c3cccc(CO)c3)nc12` came in with an IC50 in data set [1] of over 3160 nM.

Take `CN(C)CCNC(=O)c1ccc(NC(=O)Nc2ccc(-c3nc(N4CCOCC4)c4ccn(CC(F)(F)F)c4n3)cc2)cc1`: the half-life in data set [6] and in [4] was over 30 min throughout. Also, the solubility in data set [8] was found to be 68 µg/mL (≈ 111 µM). Also, the 50% inhibitory concentration (IC50) in [5] was 10.3 nM; in [3], 0.4 nM; in data set [1] it was 23 nM; in data set [7], 1.4 nM.

`OCc1cccc(-c2nc(N3CCOCC3)c3[nH]ccc3n2)c1` yielded an IC50 in [1] of 2080 nM.

As for `CN(C)C1CCN(C(=O)c2ccc(NC(=O)Nc3ccc(-c4nc(N5CCOCC5)c5ccn(CC(F)(F)F)c5n4)cc3)cc2)CC1`, the figures for the IC50 in data set [5] and in data set [1] were 11 nM and 45 nM, respectively. The half-life in data set [4] was over 30 min. The same compound showed a solubility in data set [2] of 1 µg/mL (≈ 1.54 µM).

`CN(C)CCn1ccc2c(N3CCOCC3)nc(-c3cccc(O)c3)nc21`: the midpoint of inhibition in [1], the IC50, lay at 1180 nM. Besides, the solubility in [2] was over 100 µg/mL.

In the case of `CNC(=O)Nc1ccc(-c2nc(N3CCOCC3)c3ccn(CCN(C)C)c3n2)cc1`, inhibition in [1] was half-maximal at 437 nM (IC50). In addition, the half-life in [4] amounted to 9 min. This compound showed a solubility in data set [2] of over 100 µg/mL.

`OCc1cccc(-c2nc(N3CCOCC3)c3ncn(C4CCN(Cc5ccccc5)CC4)c3n2)c1` came in with a half-life in data set [4] of 2 min.

`CN(C)CCn1ccc2c(N3CCOCC3)nc(-c3ccc(NC(=O)Nc4ccncc4)cc3)nc21`: the IC50 in data set [1] was 100 nM; in data set [7], 8 nM. Besides, the half-life in data set [4] turned out to be 2 min. The compound further registered a solubility in data set [2] of 52 µg/mL (≈ 107 µM).

In turn, `CN1CCN(CCn2ccc3c(N4CCOCC4)nc(-c4ccc(NC(=O)Nc5ccncc5)cc4)nc32)CC1` returned an IC50 in [1] of 964 nM. Further, the half-life in [4] was determined as 4 min. The compound also came in with a solubility in [2] of over 100 µg/mL.

For the compound `CN(C)CCn1ccc2c(N3CCOCC3)nc(-c3ccc(NC(=O)Nc4cccnc4)cc3)nc21`, the IC50 in data set [3] came to 3 nM; in data set [1], 137 nM. In addition, in data set [4], the half-life came out at 9 min. In [2], this compound displayed a solubility of 52 µg/mL (≈ 107 µM).

In the case of `Oc1cccc(-c2nc(N3CCOCC3)c3[nH]cc(C4CCN(Cc5ccc(F)cc5)CC4)c3n2)c1`, in data set [1], inhibition was half-maximal at 1650 nM (IC50).

For the compound `CN(C)CCN(C)C(=O)c1ccc(NC(=O)Nc2ccc(-c3nc(N4CCOCC4)c4ccn(CC(F)(F)F)c4n3)cc2)cc1`, the values for the half-life in data set [6], in data set [9] and in data set [4] were over 30 min, over 30 min and 29 min, respectively. The compound further registered a solubility in data set [8] of over 100 µg/mL. The IC50 is under 3 nM in [5], 0.6 nM in [3] and 13 nM in [1]. For the same compound, in data set [10], the concentration at 8 h came to 1730 ng/mL.

In data set [1], `O=CCn1ccc2c(N3CCOCC3)nc(-c3ccc(NC(=O)Nc4ccncc4)cc3)nc21` displayed a half-inhibitory concentration (IC50) of 639 nM. Further, in data set [2], the solubility is 2 µg/mL (≈ 4.37 µM).

As to `O=C(Nc1ccncc1)Nc1ccc(-c2nc(N3CCOCC3)c3ccn(CCN4CCCC4)c3n2)cc1`, the IC50 in [1] stood at 555 nM. In [4], this compound showed a half-life of 4 min. Besides, the solubility in [2] stood at 28 µg/mL (≈ 54.6 µM).

`CN(C)CCn1ccc2c(N3CCOCC3)nc(-c3cccc(CO)c3)nc21`: in [1], 691 nM corresponded to half-maximal inhibition (IC50). This compound registered a solubility in data set [2] of over 100 µg/mL.

In turn, `Oc1cccc(-c2nc(N3CCOCC3)c3cc[nH]c3n2)c1` had an IC50 in data set [1] of 580 nM. The solubility in data set [2] amounted to 2 µg/mL (≈ 6.75 µM).

For the compound `CCn1ccc2c(N3CCOCC3)nc(-c3ccc(NC(=O)Nc4ccc(C(=O)N5CCNCC5)cc4)cc3)nc21`, the half-life in data set [6] and in data set [4] was over 30 min throughout. The IC50 in data set [5] came to 4.5 nM; in [3], 0.9 nM; in data set [1], 27 nM; in [7], 0.8 nM. In addition, the solubility in data set [2] worked out at 1 µg/mL (≈ 1.8 µM).

`Oc1cccc(-c2nc(N3CCOCC3)c3[nH]ccc3n2)c1`: the IC50 in [1] came to 1550 nM.

`CCNC(=O)Nc1ccc(-c2nc(N3CCOCC3)c3ccn(CCN(C)C)c3n2)cc1` yielded a half-life in data set [4] of 8 min. In addition, the solubility in data set [2] was over 100 µg/mL.

Compound `CN(C)CCNCCn1ccc2c(N3CCOCC3)nc(-c3ccc(NC(=O)Nc4ccncc4)cc3)nc21` had a concentration for half-maximal inhibition (IC50) in data set [1] of 1150 nM. For the same compound, the half-life in [4] came out at 8 min. The same compound returned a solubility in [2] of 58 µg/mL (≈ 110 µM).

As to `CCn1ccc2c(N3CCOCC3)nc(-c3ccc(NC(=O)Nc4ccc(C(=O)NCCN(C)C)cc4)cc3)nc21`, the half-life in [6] and in data set [4] was over 30 min each time. Also, the 50% inhibitory concentration (IC50) in [5] is 5.5 nM; in [3], 0.5 nM; in [1], 26.5 nM; in data set [7], 1.8 nM. The solubility in [2] amounted to 1 µg/mL (≈ 1.8 µM).

On to `O=C(Nc1ccncc1)Nc1ccc(-c2nc(N3CCOCC3)c3ccn(CCO)c3n2)cc1`, for which the results for the IC50 in data set [1] and in [7] were 91 nM and 5 nM, respectively. For the same compound, in data set [4], the half-life amounted to 22 min. For the same compound, the solubility in data set [2] was 1 µg/mL (≈ 2.18 µM).
